According to US11000033B2, “Ketone or oxime compound, and herbicide” (NISSAN CHEMICAL CORPORATION, priority 2014, dated 2021):

Tests used:
Format in all cases: in vivo
Scirpus juncoides [1] = test: Test Example 1: herbicidal activity, application before weed generation in submerged conditions (symbol B); conditions: application herbicide amount 320 g/ha
In short: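 Paddy pre-emergence test. Formulated emulsion, water-diluted to a predetermined rate, is applied to floodwater on sowing day; rice transplanted at 2.5 leaves. Effect read at 3 weeks on a 0–5 herbicidal-ratio scale.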

[2] = tested on: Echinochloa oryzacola Vasing.; test: Test Example 2: herbicidal activity, application during weed generation in submerged conditions (symbol A); conditions: Table 23; application herbicide amount 320 g/ha; grade 0-5 by criteria of Test Example 1
In short: (§1)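 Paddy pot test, submerged (4 cm water), alluvial soil, mixed sowing; greenhouse 25–30° C. Emulsion formulation diluted to predetermined rate, applied onto floodwater at 1–2 leaf stage. Visual herbicidal rating at 3 wk post-treatment.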

Scirpus juncoides [3] = test: Test Example 2: herbicidal activity, application during weed generation in submerged conditions (symbol B); conditions: Table 23; application herbicide amount 320 g/ha; grade 0-5 by criteria of Test Example 1
In short: as §1

[4] = tested on: Echinochloa crus-galli var. crus-galli; test: Test Example 3: herbicidal effect by foliage application, Wagner pot (symbol H); conditions: application herbicide amount 320 g/ha; for H (Echinochloa crus-galli var. crus-galli) herbicidal effect grade: Table 24
In short: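 Foliar spray of water-diluted emulsion formulation at a predetermined herbicide amount onto 14-day-old plants in flooded alluvial soil (water depth 0.1–0.5 cm), greenhouse 25–30 °C; rice sown alongside. Scored 3 wk post-application on set criteria.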

Avena fatua = test: Test Example 4: herbicidal effect by soil treatment (symbol I)
In short: (§2)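 Seeds were sown in sterilized diluvial soil, covered with about 1.5 cm of soil, and the soil surface was sprayed with a water-diluted emulsion of the compound at a predetermined rate. Plants grew in a greenhouse at 25° C. to 30° C.; effects were scored visually 3 weeks after application.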

Chenopodium album [5] = test: Test Example 4: herbicidal effect by soil treatment (symbol O)
In short: as §2

Stellaria media = test: Test Example 4: herbicidal effect by soil treatment (symbol P)
In short: as §2

beet = test: Test Example 4: effect on crop by soil treatment (symbol f)
In short: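 Seeds were sown in spots on sterilized diluvial soil in a plastic box and covered with about 1.5 cm of soil. Plants were then grown in a greenhouse at 25° C. to 30° C.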

Digitaria ciliaris = test: Test Example 5: herbicidal effect by foliage application, plastic box (symbol F); conditions: 320 g/ha, 3 weeks after application
In short: (§3)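 After sowing into sterilized diluvial soil and growing two weeks under glass at 25° C. to 30° C., seedlings receive a uniform foliar spray of diluted emulsion. Damage is judged visually three weeks on.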

Chenopodium album [6] = test: Test Example 5: herbicidal effect by foliage application, plastic box (symbol O); conditions: 320 g/ha, 3 weeks after application
In short: as §3

rice plant = test: Test Example 5: effect on crop by foliage application, plastic box (symbol b); conditions: 320 g/ha, 3 weeks after application
In short: (§4)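 Sterilized diluvial soil, plastic box (21 × 13 × 7 cm); spot sowing, ~1.5 cm soil cover; greenhouse 25–30° C.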

rapeseed = test: Test Example 5: effect on crop by foliage application, plastic box (symbol g); conditions: 320 g/ha, 3 weeks after application
In short: as §4

[7] = application herbicide amount 320 g/ha

SMILES	B (Scirpus juncoides) herbicidal effect grade (Scirpus juncoides [1])	Herbicidal effect grade, A: Echinochloa oryzacola Vasing. [2]	Herbicidal effect grade, B: Scirpus juncoides (Scirpus juncoides [3])	H (Echinochloa crus-galli var. crus-galli) herbicidal effect grade [4]	Herbicidal effect grade, I: Avena fatua (Avena fatua; [7])	Herbicidal effect grade, O: Chenopodium album (Chenopodium album [5]; [7])	Herbicidal effect grade, P: Stellaria media (Stellaria media; [7])	Effect on crop grade, f: beet (beet; [7])	F: Digitaria ciliaris, herbicidal effect grade (Digitaria ciliaris)	O: Chenopodium album, herbicidal effect grade (Chenopodium album [6])	b: directly sowed rice plant, effect on crop grade (rice plant)	g: rapeseed, effect on crop grade (rapeseed)	Herbicidal effect grade, B: Scirpus juncoides (Scirpus juncoides [1])	herbicidal effect on H (Echinochloa crus-galli var. crus-galli), grade 0-5 [4]	other results
CC#Cc1cc(C)c(C2=C(O)CC(CC(=NOC)C3CC3)C2=O)c(C)c1 (stereo not drawn) [9-008]	5 (Herbicidal ratio of 90% or more (almost completely withered))	5 (Herbicidal ratio of 90% or more (almost completely withered))	4 (Herbicidal ratio of 70% or higher and lower than 90%)	5 (Herbicidal ratio of 90% or more (almost completely withered))	3 (Herbicidal ratio of 40% or higher and lower than 70%)	0 (Herbicidal ratio of 5% or lower (almost no effect))	0 (Herbicidal ratio of 5% or lower (almost no effect))	0 (Herbicidal ratio of 5% or lower (almost no effect))	5 (Herbicidal ratio of 90% or more (almost completely withered))	3 (Herbicidal ratio of 40% or higher and lower than 70%)	5 (Herbicidal ratio of 90% or more (almost completely withered))	4 (Herbicidal ratio of 70% or higher and lower than 90%)	–	–	–
COC(=O)C(C(=O)C1CC1)C1CC(O)=C(c2c(C)cc(Br)cc2C)C1=O (mixture of isomers) [10-002]	0 (Herbicidal ratio of 5% or lower (almost no effect))	1 (Herbicidal ratio of 5% or higher and lower than 20%)	0 (Herbicidal ratio of 5% or lower (almost no effect))	5 (Herbicidal ratio of 90% or more (almost completely withered))	3 (Herbicidal ratio of 40% or higher and lower than 70%)	0 (Herbicidal ratio of 5% or lower (almost no effect))	0 (Herbicidal ratio of 5% or lower (almost no effect))	0 (Herbicidal ratio of 5% or lower (almost no effect))	5 (Herbicidal ratio of 90% or more (almost completely withered))	0 (Herbicidal ratio of 5% or lower (almost no effect))	4 (Herbicidal ratio of 70% or higher and lower than 90%)	0 (Herbicidal ratio of 5% or lower (almost no effect))	–	–	–
CON=C(CC1CC(OC(=O)N2CCOCC2)=C(c2c(C)cc(C)cc2OC)C1=O)C1CC1 (mixture of isomers) [13-005]	0 (Herbicidal ratio of 5% or lower (almost no effect))	5 (Herbicidal ratio of 90% or more (almost completely withered))	2 (Herbicidal ratio of 20% or higher and lower than 40%)	5 (Herbicidal ratio of 90% or more (almost completely withered))	–	–	–	–	5 (Herbicidal ratio of 90% or more (almost completely withered))	0 (Herbicidal ratio of 5% or lower (almost no effect))	5 (Herbicidal ratio of 90% or more (almost completely withered))	3 (Herbicidal ratio of 40% or higher and lower than 70%)	–	–	I: Avena fatua, herbicidal effect grade (Avena fatua; [7]): 0 (Herbicidal ratio of 5% or lower (almost no effect)); O: Chenopodium album, herbicidal effect grade (Chenopodium album [5]; [7]): 0 (Herbicidal ratio of 5% or lower (almost no effect)); P: Stellaria media, herbicidal effect grade (Stellaria media; [7]): 0 (Herbicidal ratio of 5% or lower (almost no effect)); f: beet, effect on crop grade (beet; [7]): 0 (Herbicidal ratio of 5% or lower (almost no effect))
Cc1cc(C)c(C2=C(O)CC(CC(=NOCC(F)(F)F)C3CC3)C2=O)c(C)c1 (stereo not drawn) [1-131]	–	4 (Herbicidal ratio of 70% or higher and lower than 90%)	4 (Herbicidal ratio of 70% or higher and lower than 90%)	–	–	–	–	–	–	–	–	–	4 (Herbicidal ratio of 70% or higher and lower than 90%)	5 (Herbicidal ratio of 90% or more (almost completely withered))	I: Avena fatua, herbicidal effect grade (Avena fatua; 320 g/ha): 3 (Herbicidal ratio of 40% or higher and lower than 70%); O: Chenopodium album, herbicidal effect grade (Chenopodium album [5]; 320 g/ha): 0 (Herbicidal ratio of 5% or lower (almost no effect)); P: Stellaria media, herbicidal effect grade (Stellaria media; 320 g/ha): 0 (Herbicidal ratio of 5% or lower (almost no effect)); f: beet, effect grade on crop (beet; 320 g/ha): 0 (Herbicidal ratio of 5% or lower (almost no effect)); F: Digitaria ciliaris, herbicidal effect (criteria 0-5) (Digitaria ciliaris): 0 (Herbicidal ratio of 5% or lower (almost no effect)); O: Chenopodium album, herbicidal effect (criteria 0-5) (Chenopodium album [6]): 0 (Herbicidal ratio of 5% or lower (almost no effect)); b: directly sowed rice plant, effect on crop (criteria 0-5) (rice plant): 4 (Herbicidal ratio of 70% or higher and lower than 90%); g: rapeseed, effect on crop (criteria 0-5) (rapeseed): 5 (Herbicidal ratio of 90% or more (almost completely withered))
CC#Cc1cc(C)c(C2=C(O)CC(CC(=NOC)C(C)C)C2=O)c(C)c1 (stereo not drawn) [9-006]	4 (Herbicidal ratio of 70% or higher and lower than 90%)	5 (Herbicidal ratio of 90% or more (almost completely withered))	4 (Herbicidal ratio of 70% or higher and lower than 90%)	5 (Herbicidal ratio of 90% or more (almost completely withered))	4 (Herbicidal ratio of 70% or higher and lower than 90%)	0 (Herbicidal ratio of 5% or lower (almost no effect))	0 (Herbicidal ratio of 5% or lower (almost no effect))	0 (Herbicidal ratio of 5% or lower (almost no effect))	5 (Herbicidal ratio of 90% or more (almost completely withered))	2 (Herbicidal ratio of 20% or higher and lower than 40%)	5 (Herbicidal ratio of 90% or more (almost completely withered))	4 (Herbicidal ratio of 70% or higher and lower than 90%)	–	–	–
CON=C(C)CC1CC(OC(C)=O)=C(c2c(C)cc(C)cc2C)C1=O (stereo not drawn) [1-005]	–	5 (Herbicidal ratio of 90% or more (almost completely withered))	4 (Herbicidal ratio of 70% or higher and lower than 90%)	–	–	–	–	–	5 (Herbicidal ratio of 90% or more (almost completely withered))	3 (Herbicidal ratio of 40% or higher and lower than 70%)	5 (Herbicidal ratio of 90% or more (almost completely withered))	4 (Herbicidal ratio of 70% or higher and lower than 90%)	5 (Herbicidal ratio of 90% or more (almost completely withered))	5 (Herbicidal ratio of 90% or more (almost completely withered))	I (Avena fatua) herbicidal effect grade (Avena fatua; [7]): 5 (Herbicidal ratio of 90% or more (almost completely withered)); O (Chenopodium album) herbicidal effect grade (Chenopodium album [5]; [7]): 0 (Herbicidal ratio of 5% or lower (almost no effect)); P (Stellaria media) herbicidal effect grade (Stellaria media; [7]): 0 (Herbicidal ratio of 5% or lower (almost no effect)); f (beet) effect on crop grade (beet; [7]): 4 (Herbicidal ratio of 70% or higher and lower than 90%)
